The test system of test [1] is Kynurenine Aminotransferase (KAT). The test is described as follows: Determination of KAT activity inhibition in rat brain homogenate. In kind it is biochemical. As to conditions: 2 μM [3H]KYN, 2 h at 37° C., pH 8.0. As for the experimental part: A) Determination of KAT activity inhibition in rat brain homogenate
KAT was measured as described in detail by Okuno et al. (Measurement of rat brain kynurenine amino-transferase at physiological kynurenine concentrations, J. Neurochem., 57, 533-540, 1991).
Briefly, animals were killed by decapitation and the brain tissue was homogenized (1:5 v/w in 5 mM Tris-acetate buffer, pH 8.0, containing 10 mM 2-mercaptoethanol and 50 μM pyridoxal 5'-phosphate) and incubated for 2 h at 37° C. in the presence of 2 μM [^3 H]KYN (30 nCi), 1 mM 2-oxoglutarate and 70 μM pyridoxal 5'-phosphate in 150 mM Tris-acetate buffer, pH 8.0. The reaction was terminated by the addition of trichloroacetic acid.
Newly synthesized [^3 H]KYNA was separated from [^3 H]KYN on a Dowex 50W cation-exchange column and quantitated by liquid scintillation spectrometry. Blanks were obtained by using tissue which had been heat-deactivated for 10 minutes in a boiling water bath.

Test [2] deals with KYNA production. The test is described as follows: Determination of inhibition of KYNA production by rat tissue slices (cerebral cortex). The conditions noted are these: 50 μM L-KYN, 2 h at 37° C. In kind it is cell-based. As for the experimental part: B) Determination of inhibition of KYNA production by rat tissue slices
Routinely, slices (base 1×1 mm; weight 1.5 mg/slice) from the cerebral cortex were separated on ice and transferred to culture wells (10 slices/well) containing 1 ml of oxygenated Krebs-Ringer buffer (NaCl, 118.5 mM; KCl, 4.75 mM; CaCl2, 1.77 mM; MgSO4, 1.18 mM; NaH2 PO4, 12.9 mM; NaH2 PO4, 3 mM; glucose, 5 mM; pH 7.4). Subsequently, the tissue was preincubated for 10 min at 37° C. and incubated further for 2 h at 37° C., in the presence of 50 μM L-KYN in an oxygenated chamber, on a shaking water bath. Compounds of the present invention were included in the incubation mixture as needed. Following incubation, the culture wells were immediately placed on ice, and the slices were rapidly separated from the incubation medium. For KYNA determination, 1 ml samples of the incubation medium were immersed in a boiling water bath for 10 min, and the precipitated proteins were removed by centrifugation (8,730×g, 10 min). The supernatants were diluted (1:1, v/v) with 0.2M HCl and applied to Dowex 50W (hydrogen form, Sigma) cation-exchange columns (0.5×2 cm). Subsequently, the columns were washed with 1 ml of 0.1M HCl and 1 ml of water, and the fraction containing KYNA was eluted with 2 ml of water. The eluates were applied to a 3-μm C18 HPLC column (100×3.2 internal diameter, Bioanalytical Systems, West Lafayette, Ind., U.S.A.), and KYNA was isocratically eluted with a mobile phase containing 50 mM ammonium acetate and 5% methanol at a flow rate of 0.5 ml/min. Under these conditions, the retention time of KYNA was ≈7 min.
Data were recorded and calculated with a Hewlett-Packard 3390A integrator connected to a model 160 UV absorbance detector (Beckman Instruments, Berkeley, Calif., U.S.A.) set at 340 nm.

The target of test [3] is T1, KAT (Rattus norvegicus, UniProt Q08415).
T1 construct: a preparation of partially purified enzyme; from tissue; the cited method purifies from rat kidney and brain (own knowledge)
T1 sequence (Q08415 1-423): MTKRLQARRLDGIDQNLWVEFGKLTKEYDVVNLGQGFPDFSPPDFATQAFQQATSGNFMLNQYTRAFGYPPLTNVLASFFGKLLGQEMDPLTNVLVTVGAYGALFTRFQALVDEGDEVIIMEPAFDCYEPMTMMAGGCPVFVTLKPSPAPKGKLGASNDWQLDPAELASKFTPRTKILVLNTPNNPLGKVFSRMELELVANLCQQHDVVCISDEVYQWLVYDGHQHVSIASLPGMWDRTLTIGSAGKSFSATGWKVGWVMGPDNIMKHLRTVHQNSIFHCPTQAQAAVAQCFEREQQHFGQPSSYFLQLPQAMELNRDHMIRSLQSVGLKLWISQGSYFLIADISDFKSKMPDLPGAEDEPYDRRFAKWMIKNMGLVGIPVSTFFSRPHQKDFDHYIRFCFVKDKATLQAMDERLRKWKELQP
The experiment in a line: Kinetic analysis of KAT inhibitors using a partially purified enzyme preparation. The conditions noted are these: KYN 2 μM to 2 mM; double reciprocal plots; pyruvate 1 mM; pH 8.0, 37° C. In kind it is biochemical. Here is the method:
C) Kinetic analysis of KAT inhibitors using a partially Purified enzyme Preparation (Brain Research, 534, 37-44 (1990)
The reaction mixture contained [^3 H]KYN (30 nCi), diluted with unlabelled KYN to yield a final concentration of 2 μM, 1 mM pyruvate, 70 μM pyridoxal 5'-phosphate, 150 mM Tris-acetate buffer, pH 8.0, and a preparation of partially purified enzyme in a total volume of 0.1 ml. Test compounds were included in the incubation mixture as needed. The reaction was started by the addition of pyruvate. After incubation for 2 h at 37° C., the reaction was terminated by the addition of 14 μl of 50% (w/w) trichloroacetic acid. Subsequently, 1 ml of 0.1M HCl was added and denaturated protein was removed by a 4-min centrifugation in a Beckman 52B microfuge. 1 ml of the resulting supernatant was applied to a Dowex 50W column (0.5×1.0 cm; H^+ form) and washed with 1 ml of 0.1M HCl, followed by 1 ml of distilled water. [^3 H]KYNA was eluted with 2 ml of distilled water and quantitated by liquid scintillation spectrometry. Enzyme measurements were performed in triplicate samples. […]
Kinetic experiments were performed using the standard KAT assay described above by varying the concentration of KYN between 2 μM and 2 mM in the absence or presence of set concentrations of test compounds. Double reciprocal plots were constructed and lines of best fit were determined by linear regression analysis.

The test system of test [4] is glycine modulatory site of the N-methyl-D-aspartate (NMDA) receptor complex. The conditions noted are these: J. Neurochem., 52, 1319-1328, 1989; in words; cited from earlier work.

As to `Nc1ccc(Cl)cc1C(=O)CC(N)C(=O)O` (centres unmarked) [FCE 27813, 2-amino-4-(2-amino-5-chlorophenyl)-4-oxo-butyric acid], in test [1] (100 μM), the “KYNA production % of inhibition” value is 45%. The “KYNA production % of inhibition” value in test [1] (1000 μM) is on record as 81%. Moreover, in test [2], at 100 µM the inhibition was 63% and at 1000 µM the inhibition was 84%. Further, the affinity in test [3], expressed as Ki, was 88 µM.
For the molecule `Cc1ccc(N)c(C(=O)CC(N)C(=O)O)c1` (centres unmarked) [FCE 27946, 2-amino-4-(2-amino-5-methylphenyl)-4-oxo-butyric acid], the “KYNA production % of inhibition” value in test [1] (100 μM) was 13%; in test [1] (1000 μM) it was 51%. Moreover, the inhibition (in general, how much of the control response was suppressed) at 1000 µM in test [2] worked out at 64%. This molecule returned an inhibition at 300 µM in test [2] (at 300 μM (footnote *)) of 50%.
In the case of `Nc1ccc(F)cc1C(=O)CC(N)C(=O)O` (centres unmarked) [FCE 27949, 2-amino-4-(2-amino-5-fluorophenyl)-4-oxo-butyric acid], the “KYNA production % of inhibition” value in test [1] (100 μM) came to 30%. The “KYNA production % of inhibition” value in test [1] (1000 μM) is listed as 74%. In addition, in test [2], at 100 µM the inhibition was 48% and the inhibition at 1000 µM stood at 70%.
Taken in the same sequence, the figures for `CCc1ccc(N)c(C(=O)CC(N)C(=O)O)c1` (centres unmarked) [FCE 28026, 2-amino-4-(2-amino-5-ethylphenyl)-4-oxo-butyric acid] were 30%, 78%, 8% and 49%.
Taken in the same sequence, the figures for `CCCc1ccc(N)c(C(=O)CC(N)C(=O)O)c1` (centres unmarked) [FCE 28244, 2-amino-4-(2-amino-5-n-propylphenyl)-4-oxo-butyric acid] were 50%, 72%, 27% and 70%.
Taken in the same sequence, the figures for `Nc1ccc(C2CCCCC2)cc1C(=O)CC(N)C(=O)O` (centres unmarked) [FCE 28263, 2-amino-4-(2-amino-5-cyclohexylphenyl)-4-oxo-butyric acid] were 47%, 77%, 28% and 45%.
As for `Nc1ccc(Br)cc1C(=O)CC(N)C(=O)O` (centres unmarked) [FCE 28264, 2-amino-4-(2-amino-5-bromophenyl)-4-oxo-butyric acid], the “KYNA production % of inhibition” value came to 52% in test [1] (100 μM) and 83% in test [1] (1000 μM). In test [2], the inhibition at 100 µM was found to be 58%. Moreover, testing at 1000 µM in test [2] gave an inhibition of 72%.
For `CC(C)c1ccc(N)c(C(=O)CC(N)C(=O)O)c1` (centres unmarked) [FCE 28441, 2-amino-4-(2-amino-5-isopropylphenyl)-4-oxo-butyric acid], in that order: 45%, 72%, 5% and 54%.
`Nc1ccc(Cl)cc1C(=O)C[C@@H](N)C(=O)O` [FCE 28442, (R)-(+)-2-amino-4-(2-amino-5-chlorophenyl)-4-oxo-butyric acid]: the “KYNA production % of inhibition” value in test [1] (1000 μM) is on record as 31%. Further, in test [2], the inhibition at 1000 µM was 45%.
On to `Nc1ccc(Cl)cc1C(=O)C[C@H](N)C(=O)O` [FCE 28443, (S)-(-)-2-amino-4-(2-amino-5-chlorophenyl)-4-oxo-butyric acid], for which the figures for the “KYNA production % of inhibition” value in test [1] (100 μM) and in test [1] (1000 μM) were 61% and 89%, respectively. In test [2], this molecule displayed an inhibition at 100 µM of 67%. The molecule also showed an inhibition at 1000 µM in test [2] of 91%.
For `O=C(O)c1cc(=O)c2ccccc2[nH]1` [KYNA, Kynurenic Acid], the “affinity to the glycine modulatory site of the NMDA receptor complex” value in test [4] is listed as “particularly high affinity”.
Regarding `Nc1ccccc1C(=O)C[C@H](N)C(=O)O` [L-kynurenine, reference compound], in test [3], the Km (in general, the concentration of substrate that gives half-maximal velocity) came to 369 µM.

These data come from patent US5786508A, “Substituted kynurenines and process for their preparation” (Pharmacia & Upjohn S.p.A., priority 1995, dated 1998).
